Key:
[1] = Potency towards AT 6.1 cell; assay type: functional, Rattus norvegicus
[2] = molecular target: T1, Cytochrome P450 26A1 (Homo sapiens, UniProt O43174); assay: Potency towards cytochrome P 450 26 enzyme activity
T1 sequence (O43174 whole entry): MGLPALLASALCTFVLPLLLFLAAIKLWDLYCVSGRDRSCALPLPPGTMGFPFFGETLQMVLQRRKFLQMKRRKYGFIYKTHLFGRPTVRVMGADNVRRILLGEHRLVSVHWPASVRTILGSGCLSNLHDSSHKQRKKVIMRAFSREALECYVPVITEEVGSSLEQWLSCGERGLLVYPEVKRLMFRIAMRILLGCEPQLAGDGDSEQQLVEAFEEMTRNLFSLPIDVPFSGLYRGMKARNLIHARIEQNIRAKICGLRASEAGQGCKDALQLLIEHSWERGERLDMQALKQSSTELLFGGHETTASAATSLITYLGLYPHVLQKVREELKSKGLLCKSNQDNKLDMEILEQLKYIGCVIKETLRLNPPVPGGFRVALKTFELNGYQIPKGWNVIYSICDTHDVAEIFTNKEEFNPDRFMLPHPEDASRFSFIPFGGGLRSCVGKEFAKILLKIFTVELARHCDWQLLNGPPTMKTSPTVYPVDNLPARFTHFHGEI

[3] = system: T47D; assay: Potency towards T47D cell; Inactive at 1 uM; assay type: functional
[4] = system: Rattus norvegicus; assay: Potency (30 mg/kg, bid) was determined towards AT 6.1 cell; assay type: organism-based
[5] = Potency towards AT 6.1 cell; Inactive at 250 nM; assay type: functional, Rattus norvegicus
[6] = system: T47D; assay: Potency towards T47D cell; assay type: functional, cell-based, Rattus norvegicus; conditions: Homo sapiens

Row | Compound | IC50 [2] | further results
1 | CNC(=O)c1cccc(COc2ccc3cc(C(C(C)N(C)C)n4ccnc4)ccc3c2)c1 (stereo unspecified) | 37 nM | IC50 [1]: 250 nM; IC50 [3]: Inactive at 1 uM
2 | COC(=O)c1cccc(COc2ccc3cc(C(C(C)N(C)C)n4ccnc4)ccc3c2)c1 (stereo in doubt; anti) | 18 nM | 
3 | COC(=O)COc1ccc(COc2ccc3cc(C(C(C)N(C)C)n4ccnc4)ccc3c2)cc1 (stereo in doubt; anti) | 153 nM | 
4 | CC(C(c1ccc2cc(OCC(=O)O)ccc2c1)n1ccnc1)N(C)C (stereo unspecified) | 335 nM | 
5 | CC(C(c1ccc2cc(OCc3ccc(C#N)cc3)ccc2c1)n1ccnc1)N(C)C (stereo in doubt; anti) | 71 nM | 
6 | COC(=O)c1ccc(COc2ccc3cc(C(C(C)N(C)C)n4ccnc4)ccc3c2)cc1 (stereo in doubt; anti) | 85 nM | 
7 | CC(C(c1ccc2cc(OCc3ccc(OC(C)(C)C)cc3)ccc2c1)n1ccnc1)N(C)C (stereo in doubt; syn) | 34 nM | 
8 | CC(C(c1ccc2cc(OCc3cccc(C(=O)O)c3)ccc2c1)n1ccnc1)N(C)C (stereo in doubt; anti) | 6.3 nM | 
9 | CC(C(c1ccc2cc(OCc3ccc(OCC(=O)O)cc3)ccc2c1)n1ccnc1)N(C)C (stereo unspecified) | 8 nM | 
10 | CC(C(c1ccc2cc(OCc3ccc(C(=O)O)cc3)ccc2c1)n1ccnc1)N(C)C (stereo in doubt; anti) | 12 nM | 
11 | Clc1cccc(C(c2ccc3[nH]cnc3c2)n2ccnc2)c1 (stereo unspecified) |  | inhibition [4]: 90%
12 | CC(C(c1ccc2cc(OCc3cccc(C(=O)N(C)C)c3)ccc2c1)n1ccnc1)N(C)C (stereo unspecified) | 14.4 nM | IC50 [3]: Inactive at 1 uM
13 | COC(=O)c1ccc(COc2ccc3cc(C(C(C)N(C)C)n4ccnc4)ccc3c2)cc1 (stereo in doubt; syn) | 16 nM | 
14 | CC(C(c1ccc2cc(OCc3ccc(OC(C)(C)C)cc3)ccc2c1)n1ccnc1)N(C)C (stereo in doubt; anti) | 86 nM | 
15 | CC(C(c1ccc2cc(OCc3ccc(C#N)cc3)ccc2c1)n1ccnc1)N(C)C (stereo in doubt; syn) | 6 nM | 
16 | CC(C(c1ccc2cc(OCc3cccc(C(N)=O)c3)ccc2c1)n1ccnc1)N(C)C (stereo unspecified) |  | IC50 [3]: Inactive at 1 uM; IC50 [5]: Inactive at 1 uM
17 | COC(=O)c1cccc(COc2ccc3cc(C(C(C)N(C)C)n4ccnc4)ccc3c2)c1 (stereo in doubt; syn) | 7 nM | 
18 | CC(C(c1ccc2cc(OCc3cccc(C(=O)O)c3)ccc2c1)n1ccnc1)N(C)C (stereo in doubt; syn) | 3.5 nM | 
19 | CC(C(c1ccc2cc(OCc3ccc(CC(=O)O)cc3)ccc2c1)n1ccnc1)N(C)C (stereo unspecified) | 25 nM | 
20 | CNC(=O)C(C)(C)COc1ccc2cc(C(C(C)N(C)C)n3ccnc3)ccc2c1 (stereo unspecified) | 54 nM | IC50 [3]: Inactive at 1 uM; IC50 [5]: Inactive at 1 uM
21 | CC(C(c1ccc2cc(OCc3ccc(C(=O)O)cc3)ccc2c1)n1ccnc1)N(C)C (stereo in doubt; syn) | 3.3 nM | IC50 [1]: < 100 nM; IC50 [6]: < 100 nM
22 | COC(=O)COc1ccc(COc2ccc3cc(C(C(C)N(C)C)n4ccnc4)ccc3c2)cc1 (stereo in doubt; syn) | 19 nM | 
23 | CC(C(c1ccc2cc(OCC(C)(C)C(N)=O)ccc2c1)n1ccnc1)N(C)C (stereo unspecified) | 47 nM | IC50 [6]: 250 nM; IC50 [5]: Inactive at 250 nM
24 | CC(C(c1ccc2cc(OCC(C)(C)C(=O)O)ccc2c1)n1ccnc1)N(C)C (stereo unspecified) |  | IC50 [1]: 300 nM; IC50 [6]: 125 nM
25 | CC(C(c1ccc2cc(OCC(C)(C)C(=O)N(C)C)ccc2c1)n1ccnc1)N(C)C (stereo unspecified) |  | IC50 [1]: 250 nM

Reference: ChEMBL document CHEMBL1142043, “Potent and selective [2-imidazol-1-yl-2-(6-alkoxy-naphthalen-2-yl)-1-methyl-ethyl]-dimethyl-amines as retinoic acid metabolic blocking agents (RAMBAs)” (Bioorg Med Chem Lett, 2005)
